Laboratory results as given in PubChem BioAssay AID1963863 (Molecular Pharmacology Branch, DTP, NCI, 2024).

Test system: 931267-113-T-J1-PDC KRAS spheroid with HUVEC/MSC, viability
Assay: Anticancer human tumor 931267-113-T-J1-PDC patient-derived colon adenocarcinoma cell line growth inhibition [KRAS2]
Settings: for IC50: curve of first compound; for viability, T/C: stronger effect = lower value
Method in brief: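 Combination screen of spheroid viability in tumor-cell co-cultures with endothelial (HUVEC) and mesenchymal stem cell stroma. Each agent was tested in half-log dilutions, topping at clinical Cmax or at 10 microM without a known Cmax.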

[1] = second compound 0.1 µM, first compound 0.0316 µM
[2] = second compound 0.1 µM, first compound 0.1 µM
[3] = second compound 0.1 µM, first compound 0.316 µM
[4] = second compound 0.1 µM, first compound 1 µM
[5] = second compound 0.1 µM, first compound 3.16 µM
[6] = second compound 0.1 µM, first compound 10 µM
[7] = second compound 0.316 µM, first compound 0.0316 µM
[8] = second compound 0.316 µM, first compound 0.1 µM
[9] = second compound 0.316 µM, first compound 0.316 µM
[10] = second compound 0.316 µM, first compound 1 µM
[11] = second compound 0.316 µM, first compound 3.16 µM
[12] = second compound 0.316 µM, first compound 10 µM
[13] = second compound 1 µM, first compound 0.0316 µM
[14] = second compound 1 µM, first compound 0.1 µM
[15] = second compound 1 µM, first compound 0.316 µM
[16] = second compound 1 µM, first compound 1 µM
[17] = second compound 1 µM, first compound 3.16 µM
[18] = second compound 1 µM, first compound 10 µM
[19] = second compound 3.16 µM, first compound 0.0316 µM
[20] = second compound 3.16 µM, first compound 0.1 µM
[21] = second compound 3.16 µM, first compound 0.316 µM
[22] = second compound 3.16 µM, first compound 1 µM
[23] = second compound 3.16 µM, first compound 3.16 µM
[24] = second compound 3.16 µM, first compound 10 µM
[25] = second compound 10 µM, first compound 0.0316 µM
[26] = second compound 10 µM, first compound 0.1 µM
[27] = second compound 10 µM, first compound 0.316 µM
[28] = second compound 10 µM, first compound 1 µM
[29] = second compound 10 µM, first compound 3.16 µM
[30] = second compound 10 µM, first compound 10 µM
[31] = second compound 0.1 µM, first compound 0.00316 µM
[32] = second compound 0.1 µM, first compound 0.01 µM
[33] = second compound 0.316 µM, first compound 0.00316 µM
[34] = second compound 0.316 µM, first compound 0.01 µM
[35] = second compound 1 µM, first compound 0.00316 µM
[36] = second compound 1 µM, first compound 0.01 µM
[37] = second compound 3.16 µM, first compound 0.00316 µM
[38] = second compound 3.16 µM, first compound 0.01 µM
[39] = second compound 10 µM, first compound 0.00316 µM
[40] = second compound 10 µM, first compound 0.01 µM
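Note: compound exposure lasted 7 days before the readout.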
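Throughout, for viability, T/C: 100% = DMSO vehicle control viability.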

Row | SMILES | IC50 (second compound 0.1 µM) [µM] | IC50 (second compound 0.316 µM) [µM] | IC50 (second compound 1 µM) [µM] | IC50 (second compound 3.16 µM) [µM] | IC50 (second compound 10 µM) [µM] | viability, T/C [1] [%] | viability, T/C [2] [%] | viability, T/C [3] [%] | viability, T/C [4] [%] | viability, T/C [7] [%] | viability, T/C [8] [%] | viability, T/C [9] [%] | viability, T/C [10] [%] | viability, T/C [13] [%] | viability, T/C [14] [%] | viability, T/C [15] [%] | viability, T/C [19] [%] | viability, T/C [20] [%] | viability, T/C [25] [%] | viability, T/C [26] [%] | other results
1 | CC(C)NCC(C(=O)N1CCN(c2ncnc3c2C(C)CC3O)CC1)c1ccc(Cl)cc1 (stereo not given) + CNCc1ccccc1-c1csc(C(C)Nc2nc(C)nc3cc(OC)c(OC)cc23)c1 | 4.93 | 5.43 | 0.0905 | < 0.0316 | < 0.0316 | 96.3 | 90.4 | 79 | 68.4 | 76 | 70 | 63.6 | 54.6 | 60.7 | 47.9 | 38.9 | 0.1 | 0.18 | 0.17 | 0.15 | viability, T/C [5]: 59.3%; viability, T/C [6]: 38.6%; viability, T/C [11]: 69.1%; viability, T/C [12]: 31.1%; viability, T/C [16]: 33.4%; viability, T/C [17]: 21.6%; viability, T/C [18]: 19.2%; viability, T/C [21]: 0.09%; viability, T/C [22]: 0.1%; viability, T/C [23]: 0.14%; viability, T/C [24]: 0.16%; viability, T/C [27]: 0.15%; viability, T/C [28]: 0.14%; viability, T/C [29]: 0.25%; viability, T/C [30]: 1.22%
2 | CC1(C)CCC(CN2CCN(c3ccc(C(=O)NS(=O)(=O)c4ccc(NCC5CCOCC5)c([N+](=O)[O-])c4)c(Oc4cnc5[nH]ccc5c4)c3)CC2)=C(c2ccc(Cl)cc2)C1 + CNCc1ccccc1-c1csc(C(C)Nc2nc(C)nc3cc(OC)c(OC)cc23)c1 | 1.92 | 1.75 | < 0.0316 | < 0.0316 | < 0.0316 | 107 | 95.7 | 106 | 83.6 | 82.6 | 69.5 | 83.6 | 81.1 | 41.8 | 47.4 | 54 | 0.12 | 0.09 | 0.18 | 0.28 | viability, T/C [5]: 24%; viability, T/C [6]: 4.79%; viability, T/C [11]: 19.3%; viability, T/C [12]: 1.1%; viability, T/C [16]: 39.2%; viability, T/C [17]: 4.62%; viability, T/C [18]: 0.48%; viability, T/C [21]: 0.2%; viability, T/C [22]: 0.08%; viability, T/C [23]: 0.05%; viability, T/C [24]: 0.38%; viability, T/C [27]: 0.14%; viability, T/C [28]: 0.17%; viability, T/C [29]: 0.44%; viability, T/C [30]: 1.23%
3 | CCN1CCN(Cc2ccc(Nc3ncc(F)c(-c4cc(F)c5nc(C)n(C(C)C)c5c4)n3)nc2)CC1 + CNCc1ccccc1-c1csc(C(C)Nc2nc(C)nc3cc(OC)c(OC)cc23)c1 | 0.149 | 0.0701 | 0.00673 | < 0.00316 | < 0.00316 | 56.5 | 56.6 | 43.2 | 28.6 | 46.4 | 49 | 38.5 | 3.67 | 28.7 | 32.2 | 1.49 | 0.08 | 0.09 | 0.18 | 0.15 | viability, T/C [31]: 76.8%; viability, T/C [32]: 82.9%; viability, T/C [33]: 75.2%; viability, T/C [34]: 60.7%; viability, T/C [35]: 60.1%; viability, T/C [36]: 43.3%; viability, T/C [16]: 0.15%; viability, T/C [37]: 0.13%; viability, T/C [38]: 0.12%; viability, T/C [21]: 0.05%; viability, T/C [22]: 0.14%; viability, T/C [39]: 4.51%; viability, T/C [40]: 0.16%; viability, T/C [27]: 1.23%; viability, T/C [28]: 0.18%
4 | Cn1ncnc1[C@H]1c2n[nH]c(=O)c3cc(F)cc(c23)N[C@@H]1c1ccc(F)cc1 + CNCc1ccccc1-c1csc(C(C)Nc2nc(C)nc3cc(OC)c(OC)cc23)c1 | > 0.1 | > 0.1 | < 0.000316 | < 0.000316 | < 0.000316 | 80.9 | 72.6 |  |  | 52.5 | 56.6 |  |  | 52.6 | 32.3 |  | 0.1 | 0.19 | 0.16 | 0.98 | viability, T/C (second compound 0.1 µM, first compound 0.000316 µM): 95.4%; viability, T/C (second compound 0.1 µM, first compound 0.001 µM): 85.4%; viability, T/C [31]: 92.4%; viability, T/C [32]: 84%; viability, T/C (second compound 0.316 µM, first compound 0.000316 µM): 62.4%; viability, T/C (second compound 0.316 µM, first compound 0.001 µM): 66.7%; viability, T/C [33]: 66.5%; viability, T/C [34]: 59.9%; viability, T/C (second compound 1 µM, first compound 0.000316 µM): 42.1%; viability, T/C (second compound 1 µM, first compound 0.001 µM): 61.8%; viability, T/C [35]: 43.2%; viability, T/C [36]: 32.8%; viability, T/C (second compound 3.16 µM, first compound 0.000316 µM): 0.09%; viability, T/C (second compound 3.16 µM, first compound 0.001 µM): 0.09%; viability, T/C [37]: 0.09%; viability, T/C [38]: 0.07%; viability, T/C (second compound 10 µM, first compound 0.000316 µM): 0.14%; viability, T/C (second compound 10 µM, first compound 0.001 µM): 0.13%; viability, T/C [39]: 0.13%; viability, T/C [40]: 0.14%
